Patent EP4559912A1, “SULFUR-CONTAINING HETEROAROMATIC RING COMPOUND, PHARMACEUTICAL COMPOSITION THEREOF, AND USE THEREOF” (Evopoint Biosciences Co., Ltd., priority 2022, dated 2024)

Each compound was assayed against His-GST tagged PARG (Homo sapiens, UniProt Q86W56) (assay: In vitro PARG assay (TR-FRET)). Details: 4 pM His-GST tagged PARG, 30 nM Bio PARylated PARP1 substrate, 20 min at room temperature, TR-FRET Em 665/Em 615.
Format: biochemical
Experimental: The in vitro PARG assay experiment was conducted in a standard 384-well plate with a total volume of 15 µL. To a 384-well plate containing the test compound was added 5 µL of an enzyme reaction mixture (50 mM Tris-HCL pH 7.5, 50 mM KCL, 0.01% Triton X-100, 0.01% BSA, and 4 pM His-GST tagged PARG). The plate was incubated at room temperature for 10 min, and then 5 µL of a substrate mixture (50 mM Tris-HCL pH 7.5, 50 mM KCL, 0.01% Triton X-100, 0.01% BSA, and 30 nM Bio PARylated PARP1) was added to initiate the reaction. The plate was further incubated at room temperature for 20 min, and then 5 µL of a detection reagent was added to terminate the reaction. The detection reagent was prepared from a buffer (50 mM Tris-HCl pH 7.5, 50 mM KCL, 0.01% Triton X-100, and 0.01% BSA), 3 µM compound PDD00017273, 1.5× Mab anti-6HIS XL665 (Cisbio: 61HISXLA), and 1.5× streptavidin terbium cryptate (Cisbio: 610SATLA). The final concentrations of the compound PDD00017273, the 1.5× Mab anti-6HIS XL665 (Cisbio: 61HISXLA), and the 1.5× streptavidin terbium cryptate were 1 µM, 0.5×, and 0.5×, respectively. After incubation in the dark at room temperature for 120 min, TR-FRET signals were measured at Ex 340, Em 665, and Em 615. The ratio for each well was calculated as Em 665/Em 615 (the ratio here corresponds to the ratio of fluorescence signals at the wavelengths).

Chain of His-GST tagged PARG (Q86W56 whole entry): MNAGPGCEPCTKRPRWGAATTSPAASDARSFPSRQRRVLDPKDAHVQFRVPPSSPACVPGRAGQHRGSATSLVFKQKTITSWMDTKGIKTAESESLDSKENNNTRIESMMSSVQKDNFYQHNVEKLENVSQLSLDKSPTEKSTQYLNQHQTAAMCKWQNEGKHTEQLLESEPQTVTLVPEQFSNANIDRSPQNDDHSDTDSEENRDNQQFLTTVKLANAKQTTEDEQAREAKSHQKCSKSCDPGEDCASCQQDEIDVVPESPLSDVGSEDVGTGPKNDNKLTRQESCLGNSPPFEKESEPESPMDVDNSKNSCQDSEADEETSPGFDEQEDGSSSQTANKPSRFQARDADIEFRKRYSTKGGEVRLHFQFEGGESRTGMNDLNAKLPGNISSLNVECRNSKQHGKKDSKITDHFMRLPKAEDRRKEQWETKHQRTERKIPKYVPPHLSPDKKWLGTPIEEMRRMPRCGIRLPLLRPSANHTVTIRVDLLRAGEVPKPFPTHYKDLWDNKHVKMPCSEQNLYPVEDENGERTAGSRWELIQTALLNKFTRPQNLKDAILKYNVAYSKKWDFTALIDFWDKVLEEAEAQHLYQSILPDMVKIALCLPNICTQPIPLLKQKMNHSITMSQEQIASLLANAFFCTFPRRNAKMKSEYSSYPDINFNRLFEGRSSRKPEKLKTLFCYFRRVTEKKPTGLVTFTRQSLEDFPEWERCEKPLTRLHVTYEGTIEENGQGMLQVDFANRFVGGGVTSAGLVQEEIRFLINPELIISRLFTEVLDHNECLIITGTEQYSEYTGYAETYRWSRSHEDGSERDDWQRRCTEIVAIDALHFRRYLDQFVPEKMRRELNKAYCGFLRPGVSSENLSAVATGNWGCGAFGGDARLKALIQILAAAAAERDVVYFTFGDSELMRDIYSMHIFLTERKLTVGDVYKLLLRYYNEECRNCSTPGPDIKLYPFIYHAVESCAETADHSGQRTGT

Compound	IC50
C[C@@H]1CN(c2cc(S(=O)(=O)NC3(C#N)CC3)cc3c2cnn3-c2nnc(C(F)F)s2)CCN1C(=O)C(C)(C)OC(F)F [EVO29592]	< 100 nM
C[C@@H]1CN(c2cc(S(=O)(=O)NC3(C#N)CC3)cc3c2nnn3-c2nnc(C(F)F)s2)CCN1C(=O)[C@H](O)C(C)(C)C [EVO29725]	100 to 500 nM
CO[C@@H](C(=O)N1CCN(c2cc(S(=O)(=O)NC3(C#N)CC3)cc3c2cnn3-c2nnc(C(F)F)s2)C[C@H]1C)C(C)(C)C [EVO29736]	< 100 nM
C[C@@H]1CN(c2cc(S(=O)(=O)NC3(C#N)CC3)cc3c2c(F)nn3-c2nnc(C(F)F)s2)CCN1C(=O)[C@H](O)C(C)(C)C [EVO29757]	< 100 nM
C[C@@H]1CN(c2cc(S(=O)(=O)NC3(C#N)CC3)cc3c2c(F)nn3-c2nnc(C(F)F)s2)CCN1C(=O)[C@@](C)(O)C(F)(F)F [EVO29761]	< 100 nM
C[C@@H]1CN(c2cc(S(=O)(=O)NC3(C#N)CC3)cc3c2c(F)nn3-c2nnc(C(F)F)s2)CCN1C(=O)[C@](C)(O)C(F)(F)F [EVO29762]	< 100 nM
CC(C)(C)[C@@H](O)C(=O)N1CCN(c2cc(S(=O)(=O)NC3(C#N)CC3)cc3c2cnn3-c2nnc(C(F)F)s2)C[C@H]1CF [EVO29778]	< 100 nM
C[C@@H]1CN(c2cc(S(=O)(=O)NC3(C#N)CC3)cc3c2ccn3-c2nnc(C(F)F)s2)CCN1C(=O)[C@H](O)C(C)(C)C [EVO29788]	< 100 nM
C[C@@H]1CN(c2c(F)c(S(=O)(=O)NC3(C#N)CC3)cc3c2c(F)nn3-c2nnc(C(F)F)s2)CCN1C(=O)[C@H](O)C(C)(C)C [EVO29792]	100 to 500 nM
C[C@@H]1CN(c2cc(S(=O)(=O)NC3(C)CC3)cc3c2c(F)nn3-c2nnc(C(F)F)s2)CCN1C(=O)[C@H](O)C(C)(C)C [EVO29798]	< 100 nM
